Test results reported in patent publication US20020026053A1, “Novel 3-(substituted) -2- indolinones compounds and use thereof as inhibitors of protein kinase activity” (priority 1997, published 2002).

Molecular target: T1, Met receptor (EGFR/Met chimeric cells, EMR) (Homo sapiens, UniProt P08581)
T1 construct: expressed in transfected cells; the other entry of the earlier key: EGFR (P00533, Epidermal growth factor receptor)
Assay: Met Autophosphorylation Assay
Type: biochemical
How it was run: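 Met phosphorylation was measured by capture ELISA. Lysates (90 μg/100 μl, HNTG plus 1 mM PMSF) from transiently transfected EGFR/Met chimera (EMR) cells were bound for 60 min at room temperature to wells holding rabbit anti-Met (C-28) on goat anti-rabbit coat. Phosphotyrosine was the read-out.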

T1 sequence (P08581 with tags, fused parts or gaps): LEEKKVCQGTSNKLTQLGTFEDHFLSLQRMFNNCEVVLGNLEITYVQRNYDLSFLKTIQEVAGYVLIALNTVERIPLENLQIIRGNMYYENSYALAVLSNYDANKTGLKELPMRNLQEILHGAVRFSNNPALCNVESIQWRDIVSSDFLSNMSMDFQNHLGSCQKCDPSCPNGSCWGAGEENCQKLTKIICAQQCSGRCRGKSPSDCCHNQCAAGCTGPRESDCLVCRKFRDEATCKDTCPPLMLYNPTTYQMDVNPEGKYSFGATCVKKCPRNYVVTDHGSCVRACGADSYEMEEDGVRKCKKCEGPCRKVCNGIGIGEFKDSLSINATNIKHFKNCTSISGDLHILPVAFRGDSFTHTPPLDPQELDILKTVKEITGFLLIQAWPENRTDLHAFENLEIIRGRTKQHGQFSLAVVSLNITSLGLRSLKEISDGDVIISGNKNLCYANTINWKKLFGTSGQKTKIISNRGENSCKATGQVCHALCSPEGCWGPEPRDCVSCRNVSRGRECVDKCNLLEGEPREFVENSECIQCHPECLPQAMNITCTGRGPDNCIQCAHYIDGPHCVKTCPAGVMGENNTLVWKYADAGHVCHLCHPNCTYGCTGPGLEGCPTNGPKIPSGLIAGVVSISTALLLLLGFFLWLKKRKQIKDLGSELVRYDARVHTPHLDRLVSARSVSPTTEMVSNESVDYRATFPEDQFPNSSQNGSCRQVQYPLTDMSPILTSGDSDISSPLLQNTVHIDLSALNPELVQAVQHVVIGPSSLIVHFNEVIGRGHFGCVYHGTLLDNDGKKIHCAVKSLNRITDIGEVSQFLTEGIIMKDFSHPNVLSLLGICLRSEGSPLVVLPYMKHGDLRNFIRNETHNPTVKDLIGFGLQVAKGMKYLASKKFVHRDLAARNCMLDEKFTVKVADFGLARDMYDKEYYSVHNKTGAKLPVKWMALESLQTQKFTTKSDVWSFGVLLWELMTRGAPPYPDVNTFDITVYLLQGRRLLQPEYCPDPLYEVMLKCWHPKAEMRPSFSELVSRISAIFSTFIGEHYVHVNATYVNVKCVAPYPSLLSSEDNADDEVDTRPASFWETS

Which “Met Kinase % Inhibition (P.130)” value does the source give for `CCOc1ccccc1C=C1C(=O)Nc2c(Br)cc(Br)c(C)c21` [10717/H02] here?
The value was 44.5%.

With `Cc1c(Br)cc(Br)c2c1C(=Cc1cccs1)C(=O)N2` [10717/H03] as the compound, how does the “Met Kinase % Inhibition (P.130)” value read?
The value was 18.3%.

Which “Met Kinase % Inhibition (P.130)” value does the source give for `Cc1c(Br)cc(Br)c2c1C(=Cc1cccn1C)C(=O)N2` [10717/H04] here?
The value was 14.0%.

For `COc1ccc(C=C2C(=O)Nc3c(Br)cc(Br)c(C)c32)cc1OC` [10720/H04], which “Met Kinase % Inhibition (P.130)” value is on record?
The value was 21.3%.

For `Cc1c(Br)cc(Br)c2c1C(=Cc1ccccc1O)C(=O)N2` [10720/H05], which “Met Kinase % Inhibition (P.130)” value is on record?
Its value is 51.0%.

How did the “Met Kinase % Inhibition (P.130)” value turn out when `Cc1c(Br)cc(Br)c2c1C(=Cc1ccccc1)C(=O)N2` [10720/H06] was run?
Its value is 24.4%.

`CSc1ccc(C=C2C(=O)Nc3c(Br)cc(Br)c(C)c32)s1` [10720/H07] was tested. Which “Met Kinase % Inhibition (P.130)” value did it give?
Its value is 10.8%.

For `Cc1cc(O)cc(O)c1C=C1C(=O)Nc2c(Br)cc(Br)c(C)c21` [10720/H08], which “Met Kinase % Inhibition (P.130)” value is on record?
The value was 40.0%.

`CCOc1cc(C=C2C(=O)Nc3c(Br)cc(Br)c(C)c32)ccc1O` [10720/H09] was tested. Which “Met Kinase % Inhibition (P.130)” value did it give?
Its value is 49.0%.

How did the “Met Kinase % Inhibition (P.130)” value turn out when `COc1ccc(O)c(C=C2C(=O)Nc3c(Br)cc(Br)c(C)c32)c1` [10720/H10] was run?
Its value is 48.2%.

For `Cc1c(Br)cc(Br)c2c1C(=Cc1ncc[nH]1)C(=O)N2` [10720/H11], which “Met Kinase % Inhibition (P.130)” value is on record?
The value was 28.0%.

How did the “Met Kinase % Inhibition (P.130)” value turn out when `Cc1c(Br)cc(Br)c2c1C(=Cc1nc3ccccc3n1C)C(=O)N2` [10721/H02] was run?
The value was 39.7%.

How did the “Met Kinase % Inhibition (P.130)” value turn out when `Cc1c(Br)cc(Br)c2c1C(=Cc1nn(C)cc1Cl)C(=O)N2` [10721/H03] was run?
Its value is 21.3%.

With `Cc1cc(C=C2C(=O)Nc3c(Br)cc(Br)c(C)c32)sc1C` [10721/H04] as the compound, how does the “Met Kinase % Inhibition (P.130)” value read?
The value was 72.9%.

Which “Met Kinase % Inhibition (P.130)” value does the source give for `Cc1c(Br)cc(Br)c2c1C(=Cc1cc3c([nH]1)CCCC3)C(=O)N2` [10721/H05] here?
The value was 33.6%.

`Cc1c(Br)cc(Br)c2c1C(=Cc1cc([N+](=O)[O-])cc(CCl)c1O)C(=O)N2` [10721/H06] was tested. Which “Met Kinase % Inhibition (P.130)” value did it give?
Its value is 90.3%.

For `Cc1c(Br)cc(Br)c2c1C(=Cc1ccc(Cl)s1)C(=O)N2` [10721/H07], which “Met Kinase % Inhibition (P.130)” value is on record?
Its value is 10.4%.

Which “Met Kinase % Inhibition (P.130)” value does the source give for `Cc1cc(C)c(C=C2C(=O)Nc3c(Br)cc(Br)c(C)c32)[nH]1` [10721/H08] here?
The value was 42.5%.

For `Cc1c(Br)cc(Br)c2c1C(=Cc1ccc(O)c(C(C)(C)C)c1)C(=O)N2` [10721/H09], which “Met Kinase % Inhibition (P.130)” value is on record?
The value was 36.7%.

Which “Met Kinase % Inhibition (P.130)” value does the source give for `Cc1c(Br)cc(Br)c2c1C(=Cc1cc(Br)c(O)c(C(C)(C)C)c1)C(=O)N2` [10721/H10] here?
The value was 46.9%.

`Cc1c(Br)cc(Br)c2c1C(=Cc1cc(C(C)(C)C)c(O)c(C(C)(C)C)c1)C(=O)N2` [10721/H11] was tested. Which “Met Kinase % Inhibition (P.130)” value did it give?
The value was 46.0%.

With `Cc1c(Br)cc(Br)c2c1C(=Cc1cc([N+](=O)[O-])c(O)c(C(C)(C)C)c1)C(=O)N2` [10722/H02] as the compound, how does the “Met Kinase % Inhibition (P.130)” value read?
Its value is 37.8%.

Which “Met Kinase % Inhibition (P.130)” value does the source give for `Cc1c(Br)cc(Br)c2c1C(=Cc1c(O)cc(O)cc1O)C(=O)N2` [10722/H03] here?
Its value is 100.5%.

For `Cc1c(Br)cc(Br)c2c1C(=Cc1ccc([N+](=O)[O-])s1)C(=O)N2` [10722/H04], which “Met Kinase % Inhibition (P.130)” value is on record?
Its value is 62.2%.

Which “Met Kinase % Inhibition (P.130)” value does the source give for `Cc1c(Br)cc(Br)c2c1C(=Cc1ccc(C(=O)O)cc1)C(=O)N2` [10722/H05] here?
Its value is 83.2%.

With `Cc1c(Br)cc(Br)c2c1C(=Cc1ccc(F)cc1F)C(=O)N2` [10722/H06] as the compound, how does the “Met Kinase % Inhibition (P.130)” value read?
Its value is 70.3%.

Which “Met Kinase % Inhibition (P.130)” value does the source give for `Cc1cc(C=C2C(=O)Nc3c(Br)cc(Br)c(C)c32)cc(C)c1O` [10722/H07] here?
Its value is 51.0%.

For `Cc1c(Br)cc(Br)c2c1C(=Cc1cc(Cl)c(O)c(C(C)(C)C)c1)C(=O)N2` [10722/H08], which “Met Kinase % Inhibition (P.130)” value is on record?
The value was 72.6%.

`Cc1c(Br)cc(Br)c2c1C(=Cc1csc([N+](=O)[O-])c1)C(=O)N2` [10722/H09] was tested. Which “Met Kinase % Inhibition (P.130)” value did it give?
Its value is 67.6%.

How did the “Met Kinase % Inhibition (P.130)” value turn out when `CCCCN(CCCC)c1ccc(C=C2C(=O)Nc3c(Br)cc(Br)c(C)c32)cc1` [10722/H10] was run?
Its value is 30.3%.

Which “Met Kinase % Inhibition (P.130)” value does the source give for `Cc1c(Br)cc(Br)c2c1C(=Cc1ccc(C(F)(F)F)cc1)C(=O)N2` [10722/H11] here?
Its value is 66.1%.

`Cc1c(Br)cc(Br)c2c1C(=Cc1ccc(O)c(O)c1O)C(=O)N2` [10723/H02] was tested. Which “Met Kinase % Inhibition (P.130)” value did it give?
Its value is 100.8%.

Which “Met Kinase % Inhibition (P.130)” value does the source give for `COc1cccc(C=C2C(=O)Nc3c(Br)cc(Br)c(C)c32)c1O` [10723/H03] here?
Its value is 69.2%.

`Cc1c(Br)cc(Br)c2c1C(=Cc1cc(O)c(O)c(Br)c1)C(=O)N2` [10723/H04] was tested. Which “Met Kinase % Inhibition (P.130)” value did it give?
Its value is 95.6%.

With `CC(=O)Oc1ccc(C=C2C(=O)Nc3c(Br)cc(Br)c(C)c32)cc1OC(C)=O` [10723/H05] as the compound, how does the “Met Kinase % Inhibition (P.130)” value read?
The value was 64.2%.

`Cc1cc(C=C2C(=O)Nc3c(Br)cc(Br)c(C)c32)ccc1O` [10723/H06] was tested. Which “Met Kinase % Inhibition (P.130)” value did it give?
Its value is 44.9%.

How did the “Met Kinase % Inhibition (P.130)” value turn out when `Cc1c(Br)cc(Br)c2c1C(=Cc1ccccc1Br)C(=O)N2` [10723/H07] was run?
The value was 44.9%.

Which “Met Kinase % Inhibition (P.130)” value does the source give for `Cc1c(Br)cc(Br)c2c1C(=Cc1ccc(O)cc1O)C(=O)N2` [10723/H08] here?
The value was 86.2%.

With `COc1ccc(C=C2C(=O)Nc3c(Br)cc(Br)c(C)c32)c(O)c1` [10723/H09] as the compound, how does the “Met Kinase % Inhibition (P.130)” value read?
Its value is 62.1%.

Which “Met Kinase % Inhibition (P.130)” value does the source give for `Cc1c(Br)cc(Br)c2c1C(=Cc1cccc(Br)c1)C(=O)N2` [10723/H10] here?
Its value is 46.4%.

How did the “Met Kinase % Inhibition (P.130)” value turn out when `Cc1c(Br)cc(Br)c2c1C(=Cc1cc(C(C)(C)C)cc(C(C)(C)C)c1O)C(=O)N2` [10723/H11] was run?
Its value is 76.2%.

Which “Met Kinase % Inhibition (P.130)” value does the source give for `Cc1c(Br)cc(Br)c2c1C(=Cc1ccc(N(C)C)c3ccccc13)C(=O)N2` [10724/H02] here?
Its value is 51.9%.

With `Cc1c(Br)cc(Br)c2c1C(=Cc1ccc(O)c([N+](=O)[O-])c1)C(=O)N2` [10724/H03] as the compound, how does the “Met Kinase % Inhibition (P.130)” value read?
Its value is 26.1%.

With `Cc1c(Br)cc(Br)c2c1C(=Cc1ccc([N+](=O)[O-])c(O)c1)C(=O)N2` [10724/H04] as the compound, how does the “Met Kinase % Inhibition (P.130)” value read?
The value was 69.3%.

How did the “Met Kinase % Inhibition (P.130)” value turn out when `Cc1c(Br)cc(Br)c2c1C(=Cc1cc3c4c(c1O)CCCN4CCC3)C(=O)N2` [10724/H05] was run?
Its value is 68.6%.

`Cc1c(Br)cc(Br)c2c1C(=Cc1cc(C(C)C)c(O)c(C(C)C)c1)C(=O)N2` [10724/H06] was tested. Which “Met Kinase % Inhibition (P.130)” value did it give?
The value was 32.8%.

For `Cc1c(Br)cc(Br)c2c1C(=Cc1cc3ccccc3o1)C(=O)N2` [10724/H07], which “Met Kinase % Inhibition (P.130)” value is on record?
Its value is 8.6%.

Which “Met Kinase % Inhibition (P.130)” value does the source give for `COc1cc(O)c(C=C2C(=O)Nc3c(Br)cc(Br)c(C)c32)c(OC)c1` [10724/H08] here?
The value was 65.8%.

Which “Met Kinase % Inhibition (P.130)” value does the source give for `Cc1c(Br)cc(Br)c2c1C(=Cc1cccn1-c1ccc(Cl)cc1)C(=O)N2` [10724/H09] here?
Its value is 4.2%.

Which “Met Kinase % Inhibition (P.130)” value does the source give for `CCc1ccc(C=C2C(=O)Nc3c(Br)cc(Br)c(C)c32)o1` [10724/H10] here?
The value was 72.2%.

Which “Met Kinase % Inhibition (P.130)” value does the source give for `Cc1c(Br)cc(Br)c2c1C(=Cc1sc3scc(C)c3c1C)C(=O)N2` [10724/H11] here?
Its value is 9.8%.

Which “Met Kinase % Inhibition (P.130)” value does the source give for `Cc1c(Br)cc(Br)c2c1C(=Cc1sccc1Br)C(=O)N2` [10725/H02] here?
The value was 15.8%.

Which “Met Kinase % Inhibition (P.130)” value does the source give for `COc1ccc(Br)c(C=C2C(=O)Nc3c(Br)cc(Br)c(C)c32)c1O` [10725/H03] here?
The value was 58.3%.

For `Cc1ccc(C=C2C(=O)Nc3c(Br)cc(Br)c(C)c32)o1` [10725/H04], which “Met Kinase % Inhibition (P.130)” value is on record?
Its value is 47.1%.

How did the “Met Kinase % Inhibition (P.130)” value turn out when `Cc1cc(C=C2C(=O)Nc3c(Br)cc(Br)c(C)c32)[nH]n1` [10725/H05] was run?
The value was 20.8%.

Which “Met Kinase % Inhibition (P.130)” value does the source give for `COc1cc(C)cc(O)c1C=C1C(=O)Nc2c(Br)cc(Br)c(C)c21` [10725/H06] here?
Its value is 33.0%.

`Cc1c(Br)cc(Br)c2c1C(=Cc1ccc(N3CCN(C=O)CC3)cc1)C(=O)N2` [10725/H07] was tested. Which “Met Kinase % Inhibition (P.130)” value did it give?
Its value is 14.2%.
